Assay: xn = mol fraction of the nth substance listed
Conditions: for viscosity: x1 = 0.5

CC[S+](CC)CCOCCOCCOCCOCC[S+](CC)CC.O=S(=O)([N-]S(=O)(=O)C(F)(F)F)C(F)(F)F.O=S(=O)([N-]S(=O)(=O)C(F)(F)F)C(F)(F)F + CC[n+]1ccn(C)c1.N#C[N-]C#N + O=S(=O)([N-]S(=O)(=O)C(F)(F)F)C(F)(F)F.[Li+]
100 kPa, x1 = 0.1416, x2 = 0.7549
Conditions	electrical conductivity [S/m]
298 K	0.679
303 K	0.979
313 K	1.29
323 K	1.7
333 K	2.05
343 K	2.41

C[N+](CCO)(CCO)CCOCCO.[Cl-] + NC(N)=O
100 kPa
Conditions	viscosity [mPa·s]
328.15 K	560
343.15 K	221
348.15 K	169
353.15 K	131

CC(=O)Nc1ccc(O)cc1 + O + CCCC[n+]1ccn(C)c1.[Cl-]
101 kPa, frequency 0.0003 MHz
Conditions	electrical conductivity [S/m]
293.15 K, x1 = 0.0005511, x3 = 5.07e-06	0.0028
293.15 K, x1 = 0.0005511, x3 = 8.5e-06	0.0044
293.15 K, x1 = 0.0005511, x3 = 1.194e-05	0.0061
293.15 K, x1 = 0.0005511, x3 = 1.61e-05	0.0081
293.15 K, x1 = 0.0005511, x3 = 1.954e-05	0.0096
293.15 K, x1 = 0.001084, x3 = 4.54e-06	0.0025
293.15 K, x1 = 0.001084, x3 = 7.63e-06	0.0038
293.15 K, x1 = 0.001084, x3 = 1.144e-05	0.0055
293.15 K, x1 = 0.001084, x3 = 1.471e-05	0.0067
293.15 K, x1 = 0.001084, x3 = 1.907e-05	0.0086
298.15 K, x1 = 0.0005511, x3 = 2.53e-06	0.0016
298.15 K, x1 = 0.0005511, x3 = 4.16e-06	0.0025
298.15 K, x1 = 0.0005511, x3 = 6.69e-06	0.0039
298.15 K, x1 = 0.0005511, x3 = 8.87e-06	0.005
298.15 K, x1 = 0.0005511, x3 = 1.122e-05	0.0062
298.15 K, x1 = 0.0005511, x3 = 1.285e-05	0.007
298.15 K, x1 = 0.0005511, x3 = 1.701e-05	0.009
298.15 K, x1 = 0.001084, x3 = 4.54e-06	0.0028
298.15 K, x1 = 0.001084, x3 = 8.36e-06	0.0046
298.15 K, x1 = 0.001084, x3 = 1.235e-05	0.0065
298.15 K, x1 = 0.001084, x3 = 1.962e-05	0.0099
303.15 K, x1 = 0.0005511, x3 = 3.44e-06	0.0022
303.15 K, x1 = 0.0005511, x3 = 5.79e-06	0.0035
303.15 K, x1 = 0.0005511, x3 = 9.23e-06	0.0054
303.15 K, x1 = 0.0005511, x3 = 1.737e-05	0.0097
303.15 K, x1 = 0.001084, x3 = 2.72e-06	0.0018
303.15 K, x1 = 0.001084, x3 = 1.217e-05	0.0067
303.15 K, x1 = 0.001084, x3 = 1.726e-05	0.0092
308.15 K, x1 = 0.0005511, x3 = 3.98e-06	0.0028
308.15 K, x1 = 0.0005511, x3 = 7.6e-06	0.0049
308.15 K, x1 = 0.0005511, x3 = 1.031e-05	0.0065
308.15 K, x1 = 0.001084, x3 = 4.18e-06	0.0028
308.15 K, x1 = 0.001084, x3 = 8.36e-06	0.005
308.15 K, x1 = 0.001084, x3 = 1.235e-05	0.0072
308.15 K, x1 = 0.001084, x3 = 1.689e-05	0.0097

Reference: the CheMixHub ionic liquid set
